Biological target: Trehalose-binding lipoprotein LpqY (Mycobacterium tuberculosis) (UniProt P9WGU9)
Assay: Binding affinity to RED-NHS labelled Mycobacterium tuberculosis LpqY expressed in Escherichia coli BL21 (DE3) assessed as dissociation constant incubated for 10 mins by Microscale thermophoresis analysis
Details: DDE = dose-dependent effect

Chain of Trehalose-binding lipoprotein LpqY (Mycobacterium tuberculosis) (P9WGU9 whole entry): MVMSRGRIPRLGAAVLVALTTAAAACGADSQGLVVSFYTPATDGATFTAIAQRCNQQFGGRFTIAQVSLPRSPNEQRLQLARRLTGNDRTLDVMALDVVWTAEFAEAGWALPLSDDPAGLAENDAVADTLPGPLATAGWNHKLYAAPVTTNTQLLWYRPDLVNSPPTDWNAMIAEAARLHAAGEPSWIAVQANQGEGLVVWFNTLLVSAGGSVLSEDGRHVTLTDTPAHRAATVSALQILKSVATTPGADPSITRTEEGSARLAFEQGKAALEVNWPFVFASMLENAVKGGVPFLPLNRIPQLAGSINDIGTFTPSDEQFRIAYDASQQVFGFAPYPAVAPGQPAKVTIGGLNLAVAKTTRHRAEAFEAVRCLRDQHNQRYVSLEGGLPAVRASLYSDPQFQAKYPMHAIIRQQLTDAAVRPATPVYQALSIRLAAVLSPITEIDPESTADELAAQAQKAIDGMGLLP

SMILES | Activity
Nc1cccnc1Nc1ccc(Cl)cc1 | Dde
COc1cc(NC(C)CCCN)c2ncccc2c1 (stereo not drawn) | Dde
CNC(=O)c1nn(C)c2c1C(C)(C)Cc1cnc(Nc3ccc(N4CCN(C)CC4)cc3)nc1-2 | Dde
